Data: ChEMBL document CHEMBL5137003, “Recent advancement in small molecules as HCV inhibitors” (Bioorg Med Chem, 2022)

What was measured:
Hepatitis C virus [1] = assay: Inhibition of HCV replication in human Huh7.5 cells after 3 hrs by renilla luciferase assay; type: functional, cell-based, Hepacivirus hominis; conditions: Huh7.5, 3 h
Hepatitis C virus [2] = assay: Antiviral activity against HCV JFH-1 infected in Huh7.5.1 cells assessed as decrease in intracellular and extracellular HCV RNA level measured after 3 days by RT-qPCR assay; type: functional, organism-based, Hepacivirus hominis; conditions: JFH-1, Huh-7.5.1, 72 h
Hepatitis C virus [3] = assay: Inhibition of HCV replication in human Huh7.5 cells cultured with SGR-Neo-RLuc-JFH1-2A replicon celIs measured after 72 hrs by luciferase assay; type: functional, cell-based, Hepacivirus hominis; conditions: JFH-1, Huh7.5, 72 h
[4] = Inhibition of Hepatitis C virus NS3 helicase measured by DNA unwinding based assay; design: species or system Hepacivirus hominis
Hepatitis C virus [5] = assay: Inhibition of HCV replicon cells; type: functional, Hepacivirus hominis
Hepatitis C virus [6] = assay: Antiviral activity against HCV infected in Huh-7.5.1 cells assessed as inhibition of HCV production measured after 24 hrs by titration assay; type: functional, organism-based, Hepacivirus hominis; conditions: Huh-7.5.1, 24 h
Hepatitis C virus [7] = assay: Antiviral activity against HCV assessed as inhibition of viral fusion and replication at attachment stage; type: functional, organism-based, Hepacivirus hominis
Hepatitis C virus [8] = assay: Antiviral activity against HCV GT-3a; type: functional, organism-based, Hepacivirus hominis; conditions: subtype 3a
[9] = molecular target: T1, Hepatitis C virus serine protease, NS3/NS4A (Hepatitis C virus, UniProt A3EZI9+D2K2A8); assay: Inhibition of HCV GT-3a NS3/4A protease; type: protein-complex assay, Hepacivirus hominis, subtype 3a
Hepatitis C virus [10] = assay: Antiviral activity against HCV GT-1b infected in Huh-5-2 cells and measured after 24 hrs by luciferase assay; type: functional, organism-based, Hepacivirus hominis; conditions: subtype 1b, Huh-5-2, 24 h
Hepatitis C virus [11] = assay: Antiviral activity against HCV GT-3a infected in Huh-5-2 cells and measured after 72 hrs by luciferase assay; type: functional, organism-based, Hepacivirus hominis; conditions: subtype 3a, Huh-5-2, 72 h
Hepatitis C virus [12] = assay: Antiviral activity against HCV GT-1b infected in Huh-5-2 cells and measured after 72 hrs by luciferase assay; type: functional, organism-based, Hepacivirus hominis; conditions: subtype 1b, Huh-5-2, 72 h
[13] = Inhibition of Hepatitis C virus NS3 protease; design: species or system Hepacivirus hominis
[14] = molecular target: RNA-directed RNA polymerase (Hepacivirus hominis, UniProt O39930); assay: Inhibition of Hepatitis C virus NS5B RNA-dependent-RNA-polymerase
Hepatitis C virus [15] = assay: Antiviral activity against HCV GT-1b; type: functional, organism-based, Hepacivirus hominis; conditions: subtype 1b
[16] = molecular target: T1, Hepatitis C virus serine protease, NS3/NS4A; assay: Inhibition of HCV GT-3a NS3/4A protease measured by fluorescence assay; type: protein-complex assay, Hepacivirus hominis, subtype 3a
Hepatitis C virus [17] = assay: Antiviral activity against HCV JFH-1 infected in Huh7.5 cells and measured after 4 days; type: functional, organism-based, Hepacivirus hominis; conditions: JFH-1, Huh7.5, 96 h
Hepatitis C virus [18] = assay: Antiviral activity against HCV GT-4a; type: functional, organism-based, Hepacivirus hominis; conditions: subtype 4a
[19] = molecular target: T1, Hepatitis C virus serine protease, NS3/NS4A; assay: Inhibition of HCV GT1b recombinant NS3/4A protease using Ac-Glu-Glu-Val-Val-Ala-Cys-AMC as substrate and measured by fluorescence based assay; type: protein-complex assay, Hepacivirus hominis, subtype 1b
[20] = Inhibition of HCV GT1b full-length NS3/4A protease D168A mutant using Ac-Glu-Glu-Val-Val-Ala-Cys-AMC as substrate and measured by fluorescence based assay; design: species or system Hepacivirus hominis, subtype 1b
Hepatitis C virus [21] = assay: Antiviral activity against HCV GT-1a expressing NS5B C316Y mutant variant; type: functional, organism-based, Hepacivirus hominis; conditions: subtype 1a
Hepatitis C virus [22] = assay: Antiviral activity against HCV GT-1a expressing NS5B S365A mutant variant; type: functional, organism-based, Hepacivirus hominis; conditions: subtype 1a
Hepatitis C virus [23] = assay: Antiviral activity against HCV GT-3a (S52) assessed as inhibition of viral replication measured by renilla luciferase assay; type: functional, organism-based, Hepacivirus hominis; conditions: subtype 3a
[24] = Inhibition of Cy5-dT15 ssDNA to Hepatitis C virus subtype 1b (Con1) NS3 helicase measured by fluorescence polarization (FP) based ssDNA binding assay; design: species or system Hepacivirus hominis
[25] = Inhibition of hepatitis C virus p7 ion channel; design: species or system Hepacivirus hominis
Hepatitis C virus [26] = assay: Inhibition of HCV replication; type: functional, Hepacivirus hominis
[27] = tested on: Internal ribosome entry site (IRES); assay: Disruption of hepatitis C virus-internal ribosome entry site (IRES) RNA base stacking interaction; design: species or system Hepacivirus hominis
[28] = molecular target: T1, Hepatitis C virus serine protease, NS3/NS4A; assay: Inhibition of HCV GT-1b NS3/4A protease measured by fluorescence assay; type: protein-complex assay, Hepacivirus hominis, subtype 1b

## O=C(NCc1ccco1)c1ccc2[nH]c(COc3ccc(C45CC6CC(CC(C6)C4)C5)cc3)nc2c1
Hepatitis C virus [1]
  EC50: 1500 nM

## Cc1cc(Oc2ccc(N)cn2)ccc1Cl
Hepatitis C virus [2]
  EC50: 80 nM

## O=C(Nc1ccc(C2=NCCN2)cc1)c1cc(C(=O)Nc2ccc(C3=NCCN3)cc2)cc(C(=O)Nc2ccc(C3=NCCN3)cc2)c1
Hepatitis C virus [3]
  IC50: 14000 nM

## COc1ccc2c(c1)c(C=C1C(=O)NC(=S)NC1=O)cn2C(=O)c1ccc2ccccc2c1
[4]
  IC50: 21400 nM

## O=C(Nc1ccn([C@@H]2O[C@H](CO)[C@@H](O)C2(F)F)c(=O)n1)C1Cc2ccccc2C1
Hepatitis C virus [5]
  IC50: 10 nM

## CC1(NCc2nnc(-c3cc(O)cc(O)c3)[nH]2)C2CC3CC(C2)CC1C3 (stereo not drawn)
Hepatitis C virus [6]
  IC50: 6420 nM

## COc1ccc2cc3[n+](cc2c1OC)CCc1cc2c(cc1-3)OCO2 [BERBERINE]
Hepatitis C virus [7]
  EC50: 7870 nM

## COc1ccc(N/C=C2\C(=O)N(Cc3ccccc3)c3ccccc32)cc1
Hepatitis C virus [8]
  EC50: 738 nM

## [2H]C([2H])([2H])Oc1cc2ccnc(O[C@@H]3C[C@H]4C(=O)N[C@]5(C(=O)NS(=O)(=O)C6(C)CC6)C[C@H]5/C=C/CC[C@@H](C)C[C@@H](CC)[C@H](NC(=O)OC(C)(C)C(F)(F)F)C(=O)N4C3)c2cc1F
[9]
  IC50: 4.8 nM

## CCOC(=O)N[C@@H](CC(C)C)C(=O)N1CCC[C@H]1C(=O)Nc1cccc(C#CC#Cc2cccc(NC(=O)[C@@H]3CCCN3C(=O)[C@H](CC(C)C)NC(=O)OCC)c2)c1
Hepatitis C virus [10]
  EC50: 0.0399 nM

## CCOC(=O)N[C@@H](C(=O)N1CCC[C@@H]1C(=O)Nc1ccc2c(c1)Cc1cc(NC(=O)[C@H]3CCCN3C(=O)[C@H](NC(=O)OCC)c3ccccc3)ccc1-2)c1ccccc1
Hepatitis C virus [11]
  EC50: 1.2 nM
Hepatitis C virus [12]
  EC50: 0.036 nM

## O=C(O[C@@H]1O[C@@H]2COC(=O)c3cc(O)c(O)c(O)c3-c3c(cc(O)c(O)c3O)C(=O)O[C@H]([C@H]1O)[C@@H]2O)c1cc(O)c(O)c(O)c1 [CORILAGIN]
[13]
  IC50: < 1000 nM
[14]
  IC50: 20000 nM

## O=C(N[C@@H](C(=O)N1CCC[C@H]1c1ncc(-c2ccc(-c3ccc(-c4cnc([C@@H]5CCCN5C(=O)[C@H](NC(=O)C5CC5)c5ccccc5)s4)cc3)cc2)s1)c1ccccc1)C1CC1
Hepatitis C virus [15]
  EC50: 0.003 nM

## Cc1ccc(S(=O)(=O)Nc2ccccc2C(=O)Nc2nc3c(Cl)ccc(Cl)c3s2)cc1
[16]
  IC50: 1600 nM

## COC(=O)N[C@H](C(=O)N1CCC[C@H]1c1ncc(-c2ccc(C#CC#Cc3cnc([C@@H]4CCCN4C(=O)[C@H](NC(=O)OC)c4ccccc4)[nH]3)c(-c3cccc(F)c3F)c2)[nH]1)C(C)C
Hepatitis C virus [8]
  IC50: 0.016 nM

## COC(=O)N[C@H](C(=O)N1CCC[C@H]1c1nc(C#CC#Cc2ccc(-c3c[nH]c([C@@H]4CCCN4C(=O)[C@@H](NC(=O)OC)C(C)C)n3)cc2)c[nH]1)C(C)C
Hepatitis C virus [8]
  EC50: 2.45 nM

## CCC[C@H](NC(=O)[C@@H]1[C@H]2CCC[C@H]2CN1C(=O)[C@@H](NC(=O)[C@@H](NC(=O)c1cnc(C(=O)NCCOCCOCCOc2cc3c4c(cccc4c2)C(=O)N(C2CCC(=O)NC2=O)C3=O)cn1)C1CCCCC1)C(C)(C)C)C(=O)C(=O)NC1CC1 (stereo partly drawn)
Hepatitis C virus [17]
  IC50: 748 nM

## O=C1NC(=S)NC(=O)C1=Cc1cn(C(=O)c2ccc3ccccc3c2)c2ccccc12
[4]
  IC50: 21600 nM

## COC(=O)N[C@H](C(=O)N1CCC[C@H]1C(=O)Nc1ccc([C@@H]2CC[C@@H](c3ccc(NC(=O)[C@@H]4CCCN4C(=O)[C@@H](NC(=O)OC)C(C)C)cc3)N2c2ccc(C(C)(C)C)cc2)cc1)C(C)C [OMBITASVIR]
Hepatitis C virus [18]
  EC50: 0.00171 nM

## CC(C)c1ccc(NC(=O)N[C@@H](Cc2c[nH]c3ccccc23)C(=O)NCCCN2CCCCC2)cc1
[19]
  IC50: 4600 nM
[20]
  IC50: 5980 nM

## CNC(=O)c1c(-c2ccc(F)cc2)oc2cc(N(C)S(C)(=O)=O)c(-c3ccc4c(n3)-c3cc5c(F)cccc5n3CO4)cc12 [MK-8876]
Hepatitis C virus [21]
  EC50: 2.3 nM
Hepatitis C virus [22]
  EC50: 1 nM

## COc1ccc2c(c1)c(C=C1C(=O)NC(=S)NC1=O)cn2C(=O)c1cccc2ccccc12
[4]
  IC50: 23500 nM

## CC(C)(C)OC(=O)c1c(NC(=O)NCc2c(C(F)(F)F)sc3c2CCNC3)sc2c1CCCC2
Hepatitis C virus [23]
  EC50: 0.21 nM

## CCCCC(O)c1cccc(=O)o1 (stereo not drawn)
[24]
  IC50: 2800 nM

## O=C1CCC(C23CC4CC(CC(C4)C2)C3)=NN1c1ccccc1
[25]
  IC50: 520 nM

## CCN(CC)c1ccc(Oc2ccc(-c3[nH]c4cccc(F)c4c(=O)c3C)cc2F)cc1
Hepatitis C virus [26]
  EC50: 5 nM

## CCCCOC(=O)N[C@H](C(=O)N1CCC[C@H]1C(=O)Nc1ccc(-c2ccc(NC(=O)[C@@H]3CCCN3C(=O)[C@@H](NC(=O)OCCCC)c3ccccc3)cc2)cc1)c1ccccc1
Hepatitis C virus [15]
  EC50: 0.0067 nM

## CN1CCN(CCCNc2nc3cc([N+](=O)[O-])ccc3nc2NCc2ccc(NC(=O)/C=C/c3ccc(N(C)C)cc3)cc2)CC1
[27]
  EC50: 67000 nM

## Cc1cc(NC(=O)Cc2csc(NS(=O)(=O)c3ccccc3)n2)ccc1Br
[28]
  IC50: 2200 nM
